Where a SMILES comes first, the peptide text is derived from it. Bridges are numbered along the chain shown (N, C = ends). [ ]: non-standard residue; d: D form. The star is where a group is joined. Phe(3,5-F2) = N[C@@H](Cc1cc(F)cc(F)c1)C(=O)O; Heptenoyl(2E) = CCCC/C=C/C(=O)*; aThr = C[C@H](O)[C@H](N)C(=O)O; Pip = O=C(O)[C@@H]1CCCCN1
How the values were obtained:
HsCIpP = biological target: T1, HsCIpP (Homo sapiens, UniProt Q16740, P57S); assay: Peptidase activity assay (Ac-WLA-AMC cleavage) with ADEP; type: biochemical; conditions: 6 μM HsCIpP, 100 μM Ac-WLA-AMC
T1 construct: 2x(His6-thrombin)-SUMO (N, cleaved yes); made in house; host or cells: E. coli (SG1146 stated for HsClpP; 'a similar protocol' for HsClpX)
Method: The peptidase activity of purified, untagged HsCIpP was assessed by monitoring the degradation of peptidyl substrates labelled with a C-terminal 7-amido-4-methylcoumarin (AMC) fluorophore. […] To identify a suitable peptidyl substrate, commercially available AMC-labelled peptides were purchased and tested for degradation by HsCIpP. These include N-acetyl-Trp-Leu-Ala-AMC (Ac-WLA-AMC) (R&D Systems) that was also previously used by Csizmadia et (Csizmadia et al., 2016), benzyloxycarbonyl-Arg-Arg-AMC (Z-RR-AMC) (Sigma-Aldrich), N-acetyl-Leu-Glu-His-Asp-AMC […] (Sigma-Aldrich), N-acetyl-Val-Glu-Thr-Asp-AMC (Ac-VETD-AMC) (Sigma-Aldrich), and benzyloxycarbonyl-Leu-Leu-Leu-AMC (Z-LLL-AMC) (Sigma-Aldrich). Suc-LY-AMC (MP Biomedicals) was also tested as a negative control. All stock solutions of the AMC-labelled peptides were prepared by dissolving the lyophilized peptides in DMSO at 90 mM or a lower concentration recommended by the manufacturer. […] Degradation of the peptidyl substrates and subsequent release of the free AMC moiety was monitored by fluorescence with λex=360 nm and λem=440 nm using the EnSpire 2300 Multilabel Reader (Perkin-Elmer) set to perform a reading every 30 s with 20 flashes. A total of 240 readings were collected for each of three independent replicates prepared for each peptidyl substrate. […]
Initial degradation rates data were analyzed using the Hill model. […]

HeLa T-REx cells = assay: Cytotoxicity, SRB staining
Method: (§1) To assess the cytotoxicity of ADEP analogs, cells were seeded at 1×10^3 or 2×10^3 cells in 50 μL per well on sterile 96-well flat-bottom tissue culture plates (VWR). Growth media without any cells was included as a control. Cells were grown for at least 24 hours to allow proper adherence to the growth surface. Afterwards, ADEP analogs were serially diluted and introduced to the tissue cultures via fresh growth media at 50 μL per well. Inclusion of activators/DMSO brought the final DMSO concentration of the growth media up to a maximum of 0.5% (v:v). […] A total of four independent replicates were prepared for each cell line and for each growth condition used. Cells were grown in the presence of ADEP/DMSO for 72 hours.
(§2) To assess cell survival, live adherent cells were fixed with 10% (w:v) trichloroacetic acid (TCA) at 4° C. for 1-2 hours. The tissue culture plates were then rinsed with water to remove dead cells and cell debris and air-dried overnight. […] Absorbance at λ=510 nm (A510) was then measured using the EnSpire 2300 Multilabel Reader. […]
(§3) To determine the IC50 for the ADEP analogs, relative cell viability (RCV) values were calculated by normalizing the A510 readings in ADEP-containing sample to the DMSO-only control. […]

[1] = tested on: undifferentiated SH-SY5Y cells; assay: Cytotoxicity, SRB staining
Method: as §1, §2, §3

[2] = tested on: HEK293 T-REx CLPP^−/− cells; assay: Cytotoxicity, SRB staining, 72 hours; conditions: CLPP^−/− cells lacking endogenous HsCIpP
Method: To assess the cytotoxicity of ADEP analogs, cells were seeded at 1×10^3 or 2×10^3 cells in 50 μL per well on sterile 96-well flat-bottom tissue culture plates (VWR). Growth media without any cells was included as a control. Cells were grown for at least 24 hours to allow proper adherence to the growth surface. Afterwards, ADEP analogs were serially diluted and introduced to the tissue cultures via fresh growth media at 50 μL per well. Inclusion of activators/DMSO brought the final DMSO concentration of the growth media up to a maximum of 0.5% (v:v). […] A total of four independent replicates were prepared for each cell line and for each growth condition used. […]
To assess cell survival, live adherent cells were fixed with 10% (w:v) trichloroacetic acid (TCA) at 4° C. for 1-2 hours. […] Absorbance at λ=510 nm (A510) was then measured using the EnSpire 2300 Multilabel Reader. […]
as §3
Assessment of cytotoxicity of ADEP-14 on human breast cancer cell lines (MDA-MB-231 WT, MDA-MB-231 CLPP-KD, MDA-MB-468, and MCF-7) and HEK cells (HEK293 T-Rex and HEK293 T-REx CLPP) were determined using the methods as described above in Example 1. […] Sulforhodamine B (SRB) staining method was used to quantify cell survival.

[3] = tested on: HEK293 T-REx+CLPP-FLAG cells; assay: Cytotoxicity, SRB staining, with or without Dox
Method: (§4) To assess the cytotoxicity of ADEP analogs, cells were seeded at 1×10^3 or 2×10^3 cells in 50 μL per well on sterile 96-well flat-bottom tissue culture plates (VWR). Growth media without any cells was included as a control. Cells were grown for at least 24 hours to allow proper adherence to the growth surface. Afterwards, ADEP analogs were serially diluted and introduced to the tissue cultures via fresh growth media at 50 μL per well. Inclusion of activators/DMSO brought the final DMSO concentration of the growth media up to a maximum of 0.5% (v:v). For experiments that involve overexpression of FLAG-tagged HsCIpP (WT or S153A mutant), Dox (Sigma-Aldrich) was also applied at 0.4 μg/mL (final concentration) as needed. A total of four independent replicates were prepared for each cell line and for each growth condition used. Cells were grown in the presence of ADEP/DMSO for 72 hours.
as §2, §3

[4] = tested on: HEK293 T-REx+CLPPS153A-FLAG cells; assay: Cytotoxicity, SRB staining, with or without Dox
Method: as §4, §2, §3

T1 sequence (Q16740 57-277 P57S): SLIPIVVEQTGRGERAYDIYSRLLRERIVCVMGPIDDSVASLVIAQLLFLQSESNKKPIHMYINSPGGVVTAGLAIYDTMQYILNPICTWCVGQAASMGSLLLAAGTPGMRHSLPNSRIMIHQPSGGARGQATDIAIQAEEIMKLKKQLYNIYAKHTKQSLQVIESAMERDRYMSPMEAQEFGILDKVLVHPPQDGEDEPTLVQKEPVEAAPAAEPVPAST

CCCC/C=C/C(=O)N[C@@H](Cc1cc(F)cc(F)c1)C(=O)N[C@@H]1C(=O)N2CCC[C@H]2C(=O)N2CCCC[C@H]2C(=O)N[C@@H](C)C(=O)N2CCC[C@H]2C(=O)O[C@H]1C [ADEP-41] ({Heptenoyl(2E)}-[Phe(3,5-F2)][aThr]P[Pip]AP; ester 2-C)
Hill coefficient (h), peptidase activity (HsCIpP): 1.5 | IC50 compared across cell lines (HeLa T-REx cells): similar | IC50 compared across cell lines [1]: slightly higher value | sensitivity to ADEP-induced cytotoxicity [2]: resistant | change in IC50 relative to WT ([3]; 0.4 μg/mL Dox, HsCIpP overexpression): significant decrease in IC50 | sensitivity relative to WT ([3]; without Dox): equally sensitive | change in IC50 ([4]; 0.4 μg/mL Dox, inactive HsCIpP(S153A) overexpression): no change in IC50 | sensitivity relative to WT ([4]; without Dox): equally sensitive

— US20210171576A1, “METHODS FOR TREATING CANCER WITH ACYLDEPSIPEPTIDE ANALOGS” (priority 2018, published 2021)
